According to paper PMC8151276, “An Integrated Approach toward NanoBRET Tracers for Analysis of GPCR Ligand Engagement” (Molecules, 2021):

Legend:
Assay type in all cases: binding
P2RY14 = target: T1, P2RY14 (Homo sapiens, UniProt Q15391); assay: NanoBRET screen HiBiT-P2RY14 in HEK293; conditions: P2RY14
T1 construct: purchased Promega (in-house HiBiT-GPCR construct library, NanoBRET)
T1 sequence (Q15391 1-338): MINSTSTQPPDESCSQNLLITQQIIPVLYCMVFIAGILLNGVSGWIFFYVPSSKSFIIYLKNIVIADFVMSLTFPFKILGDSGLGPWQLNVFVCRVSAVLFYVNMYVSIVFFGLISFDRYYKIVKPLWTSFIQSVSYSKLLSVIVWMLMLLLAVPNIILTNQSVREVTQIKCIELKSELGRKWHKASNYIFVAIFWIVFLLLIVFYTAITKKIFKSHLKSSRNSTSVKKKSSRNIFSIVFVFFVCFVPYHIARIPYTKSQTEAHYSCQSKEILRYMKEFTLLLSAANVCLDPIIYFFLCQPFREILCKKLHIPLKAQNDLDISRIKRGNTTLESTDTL
Procedure: (§1) Each tracer candidate was screened across the entire library of HiBiT-GPCR constructs using NanoBRET as the detection modality. As depicted in Figure 4A, the specificity of interactions was evaluated through decrease in BRET due to competitive displacement of a bound tracer by excess parental compound. Each tracer was analyzed for binding to each HiBiT-GPCR fusion in the absence and in the presence of competing parental compound. Briefly, HEK293 cells were transfected with HiBiT-GPCR constructs diluted into promoterless DNA to reduce expression and maximize translocation to the cell surface. Each tracer candidate was then screened at concentrations of 1 μM and 0.1 μM across cells expressing these fusions. Cells were treated for 1.5 h with tracer either alone or in the presence of 20 μM competing parental compound (i.e., control). BRET was measured upon addition of purified LgBiT and subsequent complementation with HiBiT genetically fused to a GPCR. The specificity of interactions was assessed through a decrease in BRET signal due to competitive displacement of the bound tracer. To further gauge the robustness of these interactions, the fold response over the control (i.e., BRETtracer/BRETcontrol) was calculated. We chose a 1.5-fold response, which translates to ≥7-fold signal over noise as the minimal threshold required to score an interaction as positive. […]. Below we highlight the screening results obtained for our exemplary fluorescent tracers based on Clozapine, Amitriptyline and AZD1283.
(§2) HiBiT-GPCR DNA constructs were diluted in 10 mM Tris pH 8 to a final concentration of 0.01 μg/μL, arrayed in 96-well plates and stored at −20 °C. For transfection, HEK293 cells were suspended in Opti-MEM (without phenol red) supplemented with 2% fetal bovine serum (Seradigm) and 100 units/mL penicillin–streptomycin (Gibco) at a final concentration of 220,000 cells/mL and dispensed into white 96-well plates at 90 μL/well. Subsequent transfections and screens were carried using an Agilent Bravo Automated Liquid Handling Platform. First, the 96-well HiBiT DNA arrays were diluted 25-fold in Opti-MEM (without serum or phenol red) to a final concentration of 0.0004 μg/μL and 20 μL of the diluted DNAs were transferred into new 96-well plates. Next, promoterless carrier DNA (1 μg/μL) was diluted 25-fold (0.04 μg/μL) and then dispensed into the diluted arrays at 20 μL/well. Following brief mixing, Viafect transfection reagent (Promega) diluted 16-fold into Opti-MEM was dispensed into the plates at 40 μL/well. After mixing by pipetting, plates were incubated for 10 min on the pipetting station deck. The DNA-transfection reagent complexes were then added to plates containing cells. To facilitate the screen, 10 μL of DNA-transfection reagent complexes were added in duplicates to the top 4 and bottom 4 rows, resulting in two identical 48-well arrays per plate. Plates with transfected cells were incubated for 18–20 h at 37 °C/5% CO2. A screen of each tracer across the entire library using two different concentrations requires duplicate plates of transfected cells. Depending on the number of tracers being screened, transfections can be scaled up using the same ratios. The next day, for each tracer, four 20× screening solutions in tracer dilution buffer (Promega) were prepared: two duplicates at final concentration of 20 μM and two duplicates at a final concentration of 2 μM. A competing unmodified compound was added to one of each duplicate at a final concentration of 400 μM. The four resulting solutions were diluted 4-fold in Opti-MEM without serum or phenol red to generate 5× solutions (5 µM and 0.5 µM tracer +/− 100 μM competing compound). To screen the library, a BioTek MultiFlo FX liquid dispenser was used to dispense 22.5 µL of tracer solution to the top 4 rows and 22.5 µL tracer + competing compound solution to the 4 bottom rows. Plates were briefly mixed on an orbital shaker and incubated for 1.5 h at room temperature. […]

MCHR1 = target: T2, MCHR1 (Homo sapiens, UniProt Q99705); assay: NanoBRET screen HiBiT-MCHR1 in HEK293; conditions: MCHR1
T2 construct: purchased Promega (in-house HiBiT-GPCR construct library, NanoBRET)
T2 sequence (Q99705 whole entry): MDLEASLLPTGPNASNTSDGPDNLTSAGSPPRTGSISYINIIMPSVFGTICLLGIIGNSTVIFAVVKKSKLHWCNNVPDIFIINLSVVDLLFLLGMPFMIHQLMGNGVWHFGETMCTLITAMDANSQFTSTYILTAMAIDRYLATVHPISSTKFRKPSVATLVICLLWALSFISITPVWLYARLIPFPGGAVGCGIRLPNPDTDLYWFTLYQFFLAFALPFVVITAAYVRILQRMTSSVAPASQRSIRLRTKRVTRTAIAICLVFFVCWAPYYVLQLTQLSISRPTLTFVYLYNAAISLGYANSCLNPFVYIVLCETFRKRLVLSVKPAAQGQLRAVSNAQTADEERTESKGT
Procedure: as §1, §2

NPBWR1 = target: T3, NPBWR1 (Homo sapiens, UniProt P48145); assay: NanoBRET screen HiBiT-NPBWR1 in HEK293; conditions: NPBWR1
T3 construct: purchased Promega (in-house HiBiT-GPCR construct library, NanoBRET)
T3 sequence (P48145 1-328): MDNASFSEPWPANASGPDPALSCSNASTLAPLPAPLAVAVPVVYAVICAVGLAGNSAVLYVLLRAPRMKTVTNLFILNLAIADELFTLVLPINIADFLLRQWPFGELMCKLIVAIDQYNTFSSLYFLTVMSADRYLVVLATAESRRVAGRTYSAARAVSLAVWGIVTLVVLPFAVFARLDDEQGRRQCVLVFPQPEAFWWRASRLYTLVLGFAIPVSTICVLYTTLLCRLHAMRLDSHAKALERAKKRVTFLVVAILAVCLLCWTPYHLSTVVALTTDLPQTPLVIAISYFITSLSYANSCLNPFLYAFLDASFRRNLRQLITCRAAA
Procedure: as §1, §2

Row | SMILES | NanoBRET Fold Response (P2RY14; 0.1μM tracer) | NanoBRET Fold Response (P2RY14; 1μM tracer) | NanoBRET Fold Response (MCHR1; 0.1μM tracer) | NanoBRET Fold Response (MCHR1; 1μM tracer) | NanoBRET Fold Response (NPBWR1; 0.1μM tracer) | NanoBRET Fold Response (NPBWR1; 1μM tracer) | NanoBRET Fold Response (P2RY14; tracer 0.1μM) | NanoBRET Fold Response (P2RY14; tracer 1μM) | NanoBRET Fold Response (MCHR1; tracer 0.1μM) | NanoBRET Fold Response (MCHR1; tracer 1μM) | NanoBRET Fold Response (NPBWR1; tracer 0.1μM) | NanoBRET Fold Response (NPBWR1; tracer 1μM)
1 | O=C(CCOCCOCCOCCOCCNC(=O)CCc1ccc2n1[B-](F)(F)[N+]1=C(c3ccc[nH]3)C=CC1=C2)NCCCN1CCN(C2=Nc3cc(Cl)ccc3Nc3ccccc32)CC1 [Clozapine-a-2-NB590] | 1.07 | 0.84 | 0.87 | 1.26 | 1.07 | 1.03 |  |  |  |  |  | 
2 | CN1CCN(C2=Nc3cc(Cl)ccc3Nc3ccc(CNC(=O)CCOCCOCCOCCOCCNC(=O)CCc4ccc5n4[B-](F)(F)[N+]4=C(c6ccc[nH]6)C=CC4=C5)cc32)CC1 [Clozapine-b-2-NB590] | 1.01 | 0.99 | 0.96 | 1.00 | 1.05 | 1.07 |  |  |  |  |  | 
3 | CN1CCN(C2=Nc3cc(Cl)ccc3N(CC(=O)NCCOCCOCCOCCOCCNC(=O)CCc3ccc4n3[B-](F)(F)[N+]3=C(c5ccc[nH]5)C=CC3=C4)c3ccccc32)CC1 [Clozapine-c-2-NB590] | 0.96 | 0.89 | 1.00 | 0.93 | 0.97 | 1.00 |  |  |  |  |  | 
4 | O=C(CCOCCOCCOCCOCCNC(=O)CCc1ccc2n1[B-](F)(F)[N+]1=C(c3ccc[nH]3)C=CC1=C2)NCCCN1CCN(C2=Nc3ccccc3Oc3ccc(Cl)cc32)CC1 [Loxapine-a-2-NB590] |  |  |  |  |  |  | 0.94 | 0.98 | 1.03 | 1.20 | 1.02 | 0.93
5 | COc1ccccc1N1CCN(CCCCN2C(=O)c3ccc(CNC(=O)CCOCCOCCOCCOCCNC(=O)CCc4ccc5n4[B-](F)(F)[N+]4=C(c6ccc[nH]6)C=CC4=C5)cc3C2=O)CC1 [NAN-190-2-NB590] |  |  |  |  |  |  | 1.02 |  |  | 0.93 | 1.02 | 
6 | COc1ccccc1N1CCN(CCCCN2C(=O)c3ccc(CNC(=O)CCOCCNC(=O)c4ccc(CNC(=O)CCc5ccc6n5[B-](F)(F)[N+]5=C(c7ccc[nH]7)C=CC5=C6)cc4)cc3C2=O)CC1 [NAN-190-3-NB590] |  |  |  |  |  |  | 0.95 | 1.06 | 1.20 | 0.86 | 0.92 | 0.91
7 | O=C(CCc1ccc2n1[B-](F)(F)[N+]1=C(c3ccc[nH]3)C=CC1=C2)NCc1ccc(C(=O)NCCOCCC(=O)N[C@@H]2CC[C@@]3(O)[C@H]4Cc5ccc(O)c6c5[C@@]3(CCN4CC3CC3)[C@H]2O6)cc1 [Naltrexone-3-NB590] |  |  |  |  |  |  | 0.95 | 1.00 | 1.07 | 0.92 | 0.92 | 1.19
8 | Cc1cc2c(s1)Nc1ccccc1N=C2N1CCN(CCCNC(=O)CCOCCOCCOCCOCCNC(=O)CCc2ccc3n2[B-](F)(F)[N+]2=C(c4ccc[nH]4)C=CC2=C3)CC1 [Olanzapine-a-2-NB590] |  |  |  |  |  |  | 1.05 | 1.00 | 1.04 | 1.13 | 0.99 | 1.02
